Source: patent US20210113522A1, “COUMARIN DERIVATIVE AS ANTI-ASTHMATIC AGENT, PHARMACEUTICAL COMPOSITION THEREOF, ITS PREPARATION AND USE” (I-NOVA MEDICINSKA ISTRAZIVANJA D.O.O., priority 2017, published 2021)

System: CCL11 (eotaxin)
Assay: OVA model: CCL11 (eotaxin) immunohistochemistry of lung sections
Type: in vivo, Balb/c mice
Settings: OVA-challenged mice; 1 2 mg/kg, beclomethasone 1 mg/kg
Procedure: • (1) Wash Buffer: T-PBS (0.1M, pH 7.4, 0.05% Tween 20); • (2) Blocking/Incubation Buffer: 1% bovine serum albumin, 0.1% Cold Fish Skin Gelatin, 0.5% Triton® X-100, 0.1 M PBS (pH 7.4); • (3) Peroxidase Blocking Solution (3% H2O2 in water); • (4) EDTA Antigen Retrieval Buffer (1 mM EDTA, 0.05% Tween 20, pH 8.0); • (5) Primary antibodies: • Rabbit anti-mouse IL-5 (Cat. #ABIN446956; Antibodies-Online GmbH, Schloss-Rahe-Str. 1552072 Aachen, Germany); • Rat anti-mouse CCL11 (Cat. #MAB420; R&D Systems, Inc., 614 McKinley Place Nebr., Minneapolis, Minn. 55413); • (6) Secondary antibodies: • Goat anti-rabbit IgG (H+L)-HRP (cat. #31466; Thermo Fisher Scientific, 168 Third Avenue Waltham, Mass. USA 02451); • Goat anti-rat IgG (H+L)—HRP (cat. #62-9520; Thermo Fisher Scientific, 168 Third Avenue Waltham, Mass. USA 02451); • (7) Pierce DAB Substrate Kit (DAB (10×), 25 mL; Stable Peroxide Buffer, 250 mL) (Catalog #34002; Thermo Fisher Scientific, 168 Third Avenue Waltham, Mass. USA 02451); • (8) Hematoxylin Counterstain (Cat #GHS216; Sigma-Aldrich Chemie GmbH, Eschenstrasse 5, 82024 Taufkirchen, Germany); • (9) Vitro-Clud 500 Mounting Medium (Catalog #A20500; Deltalab; Plz. Verneda 1, Pol Ind La Llana 08191 Rubí Barcelona Spain). […]

| Compound | CCL11 (eotaxin) levels in lung sections |
| --- | --- |
| O=c1oc2cc(O)cc(O)c2c(O)c1-c1coc2c1c(=O)oc1cc(O)cc(O)c12 [Compound 1, 7,9-dihydroxy-3-(4,5,7-trihydroxy-2-oxo-2H-chromene-3-yl)-4H-furo[3,2-c]chromen-4-one] | reduced to background |
| C[C@H]1C[C@H]2[C@@H]3CCC4=CC(=O)C=C[C@]4(C)[C@@]3(Cl)[C@@H](O)C[C@]2(C)[C@@]1(O)C(=O)CO [beclomethasone, reference compound] | reduced to background |
